These results are taken from article PMC10192158 (Cancer Chemotherapy and Pharmacology, 2023).

The structures appear in SMILES notation. “And” between values parts separate entries of the source, which are not always exact repeats. Equal entries are not always repeated. Where two headings read alike, the source gives them in different places.

The subject of assay [1] is VEGFR2. The conditions noted are these: cited from earlier work.
The subject of assay [2] is panel of 270 kinases. In words: Selectivity across panel of 270 kinases (residual activity radar chart, kinome tree).
In assay [3] the test system is panel of 270 kinases. The arrangement: method as in PMID 24651269, PMID 30381447. The settings on record: 1000 nM reference inhibitor, compared among all inhibitors profiled; cited from earlier work.
Assay [4] has as its target T1, KIT (Homo sapiens, UniProt P10721).
T1 construct: purchased Carna Biosciences, Inc. (Kobe, Japan)
The assay can be described thus: Kinase panel enzyme activity assay (MSA or IMAP), percent inhibition at fixed concentration. The class given is biochemical. As for the experimental part:
(§1) Kinase assays were performed to evaluate inhibitor activity on VEGFR2 and other kinases using either mobility shift assays (MSA) or immobilized metal ion affinity particle (IMAP) assays at Carna Biosciences, Inc (Kobe, Japan). The panel of kinases assayed comprises all wild-type kinases available for profiling at Carna Biosciences, Inc. For VEGFR2, the same cytoplasmic domain was used as in the SPR binding assay.
(§2) Off-chip MSA was performed by preparing a 4 × substrate/ATP/metal solution using kit buffer (20 mM HEPES, 0.01% Triton X-100, 5 mM DTT, pH 7.5), and a 2 × kinase solution was prepared in assay buffer (20 mM HEPES, 0.01% TritonX-100, 1 mM DTT, pH 7.5). […] A 4 × compound solution and the 4 × substrate/ATP/metal solution, and 2 × kinase solution were mixed and incubated in a 384-well microplate at room temperature for 1 or 5 h, dependent on the kinase. Termination Buffer (QuickScout Screening Assist MSA; Carna Biosciences) was added to the well, and the reaction mixture was applied to the LabChip™ system (Perkin Elmer) to separate and quantitate the product and substrate peptide peaks. The kinase reaction was measured using the product ratio calculated from the peak heights of the product (P) and substrate (S) peptides: [P/(P + S)].
(§3) For the IMAP assays, a 4 × substrate/ATP/metal solution and 2 × kinase solution were prepared using assay buffer (20 mM HEPES, 0.01% Tween 20, 2 mM DTT, pH 7.4). ATP concentrations in the solution were within twofold of the affinity for ATP (KM,ATP) for each individual kinase. Then, the 4 × compound solution, 4 × substrate/ATP/metal solution, and 2 × kinase solution were mixed and incubated in a single well of a polystyrene 384-well black microplate. After incubating for 1 h at room temperature, IMAP-binding reagent (IMAP Screening Express kit; Molecular Devices) was added to the well and incubated for 30 min. The kinase reaction in each well was measured via fluorescence polarization at excitation of 485 nm and emission of 530 nm.
(§4) IC50 values were calculated by fitting a 4-parameter logistic curve to the percentage inhibition values at the tested concentrations.
(§5) To compare the selectivity of rivoceranib and the 10 reference inhibitors, we performed either IMAP assays or off-chip MSA to assess the residual kinase activity of a panel of 270 kinases in the presence of 160 nM or 1600 nM rivoceranib or 1000 nM of reference inhibitor. The 270 kinases represent a broad representation of the more than 500 kinases encoded by the human genome.

Assay [5] deals with T2, PDGFRβ (Homo sapiens, UniProt P09619).
T2 construct: purchased Carna Biosciences, Inc. (Kobe, Japan)
Described as above. The class given is biochemical. As to the method: as §1, §2, §3, §4, §5

The target of assay [6] is T3, RET (Homo sapiens, UniProt P07949).
T3 construct: purchased Carna Biosciences, Inc. (Kobe, Japan)
T3 sequence (P07949 29-1114): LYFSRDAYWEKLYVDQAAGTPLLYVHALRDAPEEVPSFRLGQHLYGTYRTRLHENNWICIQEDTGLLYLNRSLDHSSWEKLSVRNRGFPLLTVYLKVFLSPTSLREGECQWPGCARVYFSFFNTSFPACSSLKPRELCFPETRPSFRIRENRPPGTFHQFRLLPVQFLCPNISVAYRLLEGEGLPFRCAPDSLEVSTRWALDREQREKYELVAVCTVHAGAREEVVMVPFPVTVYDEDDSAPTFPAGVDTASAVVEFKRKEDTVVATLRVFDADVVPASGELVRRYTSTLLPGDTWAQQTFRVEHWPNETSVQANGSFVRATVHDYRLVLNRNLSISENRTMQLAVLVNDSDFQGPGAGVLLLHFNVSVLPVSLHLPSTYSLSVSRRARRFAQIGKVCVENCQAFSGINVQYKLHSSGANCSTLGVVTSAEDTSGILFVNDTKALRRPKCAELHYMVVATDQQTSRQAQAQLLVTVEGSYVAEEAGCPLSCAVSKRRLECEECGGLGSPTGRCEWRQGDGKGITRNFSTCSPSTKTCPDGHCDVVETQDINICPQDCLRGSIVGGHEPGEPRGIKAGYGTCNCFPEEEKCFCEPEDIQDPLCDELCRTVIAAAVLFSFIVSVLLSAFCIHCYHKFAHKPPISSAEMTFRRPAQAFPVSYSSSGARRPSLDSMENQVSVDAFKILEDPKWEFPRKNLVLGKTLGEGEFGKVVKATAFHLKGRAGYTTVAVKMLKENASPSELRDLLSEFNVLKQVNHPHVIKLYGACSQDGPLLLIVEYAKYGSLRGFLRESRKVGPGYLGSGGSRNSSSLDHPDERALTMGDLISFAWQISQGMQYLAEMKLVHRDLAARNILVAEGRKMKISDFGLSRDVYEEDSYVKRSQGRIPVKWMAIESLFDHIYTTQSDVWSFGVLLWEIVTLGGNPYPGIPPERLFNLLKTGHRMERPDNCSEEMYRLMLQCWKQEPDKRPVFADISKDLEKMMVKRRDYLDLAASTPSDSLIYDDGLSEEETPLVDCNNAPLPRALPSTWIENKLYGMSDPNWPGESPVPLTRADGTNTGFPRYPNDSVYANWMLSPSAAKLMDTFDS
The assay is described as above. The class given is biochemical. As to the method: as §1, §2, §3, §4, §5

Assay [7] concerns the target T4, VEGFR1/FLT1 (Homo sapiens, UniProt P17948).
T4 construct: purchased Carna Biosciences, Inc. (Kobe, Japan)
Described as above. The assay is classed as biochemical. As for the experimental part:
as §1, §2, §3, §4, §5

Assay [8] has as its target T5, VEGFR2/KDR (Homo sapiens, UniProt P35968).
T5 construct: cytoplasmic domain of VEGFR2, encompassing amino acid residue 790 to 1356 (C-terminus); purchased Carna Biosciences, Inc. (Kobe, Japan); host or cells: insect cells
The assay is described as above. The class given is biochemical. As for the experimental part:
as §1, §2, §3, §4, §5

Assay [9] has as its target T6, VEGFR3/FLT4 (Homo sapiens, UniProt P35916).
T6 construct: purchased Carna Biosciences, Inc. (Kobe, Japan)
The assay is described as above. The class given is biochemical. As for the experimental part: as §1, §2, §3, §4, §5

Assay [10] concerns the target T7, VEGFR2 (Homo sapiens, UniProt P35968). In words: VEGFR2 kinase activity, off-chip mobility shift assay (MSA), dose-response.
Assay [11] deals with T7, VEGFR2. In words: Surface plasmon resonance (Biacore T200) binding of rivoceranib to biotinylated VEGFR2 cytoplasmic domain.
Setting [12] is: 1000 nM reference inhibitor, panel of 270 kinases.
Where [13] appears, read: SPR, individual replicates 1a, 1b, 2a, 2b.

For the compound `COc1cc2nccc(Oc3ccc(NC(=O)C4(C(=O)Nc5ccc(F)cc5)CC4)cc3)c2cc1OC` [cabozantinib], in [1] (read-out: Reported IC50 values (VEGFR2), published literature, ref Yakes FM et al., Mol Cancer Ther. 2011), the IC50 is […].

T1 sequence (P10721 26-976): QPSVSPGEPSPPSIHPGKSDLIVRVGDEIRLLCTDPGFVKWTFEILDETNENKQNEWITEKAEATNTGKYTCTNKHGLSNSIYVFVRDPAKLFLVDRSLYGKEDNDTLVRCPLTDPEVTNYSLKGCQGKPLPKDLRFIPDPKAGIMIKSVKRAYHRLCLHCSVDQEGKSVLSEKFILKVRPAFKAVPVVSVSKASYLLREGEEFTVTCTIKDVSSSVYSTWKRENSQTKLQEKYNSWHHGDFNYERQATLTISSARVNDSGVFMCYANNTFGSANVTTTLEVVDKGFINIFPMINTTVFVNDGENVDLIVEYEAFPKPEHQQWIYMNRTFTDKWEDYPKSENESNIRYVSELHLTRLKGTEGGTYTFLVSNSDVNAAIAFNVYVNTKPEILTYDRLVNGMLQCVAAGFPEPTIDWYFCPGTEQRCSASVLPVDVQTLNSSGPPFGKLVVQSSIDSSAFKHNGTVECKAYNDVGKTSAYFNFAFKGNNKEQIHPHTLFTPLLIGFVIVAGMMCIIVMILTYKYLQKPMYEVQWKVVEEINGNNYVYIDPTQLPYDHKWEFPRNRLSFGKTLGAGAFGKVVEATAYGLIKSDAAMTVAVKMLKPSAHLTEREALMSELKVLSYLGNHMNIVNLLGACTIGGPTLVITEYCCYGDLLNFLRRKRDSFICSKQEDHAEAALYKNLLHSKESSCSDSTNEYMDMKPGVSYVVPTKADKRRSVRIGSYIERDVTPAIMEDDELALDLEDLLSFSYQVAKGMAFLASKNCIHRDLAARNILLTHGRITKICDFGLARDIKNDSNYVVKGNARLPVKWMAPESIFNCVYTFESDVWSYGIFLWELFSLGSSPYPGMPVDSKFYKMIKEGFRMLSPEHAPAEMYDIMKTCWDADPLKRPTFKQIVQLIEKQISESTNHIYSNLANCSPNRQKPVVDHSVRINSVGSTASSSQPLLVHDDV
T6 sequence (P35916 25-1363): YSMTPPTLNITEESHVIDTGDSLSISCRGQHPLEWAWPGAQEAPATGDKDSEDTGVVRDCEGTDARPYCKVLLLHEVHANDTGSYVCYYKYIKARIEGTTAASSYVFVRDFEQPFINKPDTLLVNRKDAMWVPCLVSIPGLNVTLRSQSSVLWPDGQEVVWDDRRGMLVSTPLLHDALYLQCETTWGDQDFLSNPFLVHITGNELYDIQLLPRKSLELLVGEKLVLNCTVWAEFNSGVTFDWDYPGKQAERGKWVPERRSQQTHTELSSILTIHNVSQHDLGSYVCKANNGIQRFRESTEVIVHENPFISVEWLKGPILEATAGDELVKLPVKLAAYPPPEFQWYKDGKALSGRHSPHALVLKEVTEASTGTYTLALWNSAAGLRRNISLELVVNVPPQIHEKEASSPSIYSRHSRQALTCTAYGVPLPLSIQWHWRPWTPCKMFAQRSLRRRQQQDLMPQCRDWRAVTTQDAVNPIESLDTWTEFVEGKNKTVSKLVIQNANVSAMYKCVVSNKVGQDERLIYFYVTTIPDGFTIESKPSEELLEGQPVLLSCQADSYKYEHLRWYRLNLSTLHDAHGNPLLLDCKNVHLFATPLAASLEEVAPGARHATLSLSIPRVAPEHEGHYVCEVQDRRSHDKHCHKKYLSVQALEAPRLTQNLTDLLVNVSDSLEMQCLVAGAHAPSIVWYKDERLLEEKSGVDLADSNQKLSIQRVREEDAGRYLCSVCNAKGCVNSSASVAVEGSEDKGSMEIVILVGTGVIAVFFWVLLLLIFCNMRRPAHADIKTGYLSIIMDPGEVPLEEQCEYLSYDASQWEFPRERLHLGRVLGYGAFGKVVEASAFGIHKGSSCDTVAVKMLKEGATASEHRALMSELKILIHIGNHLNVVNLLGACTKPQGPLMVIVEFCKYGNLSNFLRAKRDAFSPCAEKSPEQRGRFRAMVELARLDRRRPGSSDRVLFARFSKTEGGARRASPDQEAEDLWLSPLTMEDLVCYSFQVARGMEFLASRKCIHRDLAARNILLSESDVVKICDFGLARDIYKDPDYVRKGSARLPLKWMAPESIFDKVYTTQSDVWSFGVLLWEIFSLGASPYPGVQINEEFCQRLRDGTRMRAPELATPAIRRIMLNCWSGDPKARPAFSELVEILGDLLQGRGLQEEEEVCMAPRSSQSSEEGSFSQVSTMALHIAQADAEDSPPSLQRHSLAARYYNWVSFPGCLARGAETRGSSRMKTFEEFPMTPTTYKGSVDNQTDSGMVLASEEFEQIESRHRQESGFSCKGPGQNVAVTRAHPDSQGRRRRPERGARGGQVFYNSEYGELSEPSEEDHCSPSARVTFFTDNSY
T4 sequence (P17948 27-1338): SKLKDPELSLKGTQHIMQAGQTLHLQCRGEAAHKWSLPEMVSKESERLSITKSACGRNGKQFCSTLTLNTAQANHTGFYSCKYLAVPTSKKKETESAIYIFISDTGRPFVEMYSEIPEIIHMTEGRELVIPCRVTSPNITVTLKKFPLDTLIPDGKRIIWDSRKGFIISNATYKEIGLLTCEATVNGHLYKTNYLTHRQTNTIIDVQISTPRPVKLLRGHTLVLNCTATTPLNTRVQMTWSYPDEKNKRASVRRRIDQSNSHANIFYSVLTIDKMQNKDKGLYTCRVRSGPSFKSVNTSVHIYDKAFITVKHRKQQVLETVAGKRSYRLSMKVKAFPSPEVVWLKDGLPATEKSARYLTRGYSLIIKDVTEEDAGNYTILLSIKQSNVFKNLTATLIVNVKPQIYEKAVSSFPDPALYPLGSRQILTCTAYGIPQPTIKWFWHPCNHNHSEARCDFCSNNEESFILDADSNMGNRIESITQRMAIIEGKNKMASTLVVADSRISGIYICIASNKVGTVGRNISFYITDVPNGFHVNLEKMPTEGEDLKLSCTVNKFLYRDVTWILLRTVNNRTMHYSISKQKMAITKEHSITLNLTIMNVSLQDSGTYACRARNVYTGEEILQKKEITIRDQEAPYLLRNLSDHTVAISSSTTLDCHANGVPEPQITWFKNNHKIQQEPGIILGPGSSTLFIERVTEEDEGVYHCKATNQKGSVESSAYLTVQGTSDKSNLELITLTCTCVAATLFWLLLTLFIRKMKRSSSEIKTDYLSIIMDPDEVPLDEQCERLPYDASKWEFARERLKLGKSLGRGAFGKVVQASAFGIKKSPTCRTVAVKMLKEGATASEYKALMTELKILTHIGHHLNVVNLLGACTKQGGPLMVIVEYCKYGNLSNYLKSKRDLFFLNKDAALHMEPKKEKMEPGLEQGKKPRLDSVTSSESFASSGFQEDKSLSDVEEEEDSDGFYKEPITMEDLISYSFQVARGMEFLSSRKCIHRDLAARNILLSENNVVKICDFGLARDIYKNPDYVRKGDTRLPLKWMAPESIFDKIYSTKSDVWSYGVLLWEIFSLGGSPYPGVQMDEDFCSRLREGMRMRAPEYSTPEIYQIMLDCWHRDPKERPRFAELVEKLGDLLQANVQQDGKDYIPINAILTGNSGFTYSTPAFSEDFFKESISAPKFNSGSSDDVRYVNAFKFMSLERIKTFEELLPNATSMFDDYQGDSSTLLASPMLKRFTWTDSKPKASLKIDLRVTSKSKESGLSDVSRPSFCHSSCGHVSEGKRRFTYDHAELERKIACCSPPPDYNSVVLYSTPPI

Consider `COc1cc2nccc(Oc3ccc(NC(=O)NC4CC4)c(Cl)c3)c2cc1C(N)=O` [lenvatinib], for which, in [1] (read-out: Reported IC50 values (VEGFR2), published literature, ref Brody T., 2018), the IC50 was 4 nM. Besides, in assay [2] (setting [12]), the “Number of kinases inhibited by 50% or more” value turned out to be 31.

For the compound `CCN(CC)CCNC(=O)c1c(C)[nH]c(/C=C2\C(=O)Nc3ccc(F)cc32)c1C` [sunitinib], the “Overall residual kinase activity across the panel of kinases” value in [3] is reported as “the least residual kinase activity”. Besides, the “Number of additional kinases beyond VEGFR2 inhibited by > 50%” value in assay [2] (setting [12]) is 125.

`N#CC1(c2ccc(NC(=O)c3cccnc3NCc3ccncc3)cc2)CCCC1` [rivoceranib]: the inhibition at […] in assay [4] (rivoceranib 160 nM) was 47.3%; in assay [4] (rivoceranib 1600 nM) it was 92.6%; in [5] (rivoceranib 160 nM) it was 62.1%; in assay [5] (rivoceranib 1600 nM), 94.8%; in assay [6] (rivoceranib 160 nM), 71.7%; in [6] (rivoceranib 1600 nM), 97.9%. Moreover, the inhibition at […] in assay [7] (rivoceranib 160 nM) worked out at 93.3%; in assay [7] (rivoceranib 1600 nM), 99.5%; in [8] (rivoceranib 160 nM), 96.1%; in [8] (rivoceranib 1600 nM), 101%; in [9] (rivoceranib 160 nM), 92.9%; in assay [9] (rivoceranib 1600 nM) it was 99.3%. Besides, the Percent inhibition in [4] (rivoceranib 1600 nM) is 92.58%; in assay [5] (rivoceranib 160 nM), 62.11%; in assay [6] (rivoceranib 160 nM), 71.72%; in assay [6] (rivoceranib 1600 nM), 97.89%; in [7] (rivoceranib 160 nM), 93.27%; in assay [7] (rivoceranib 1600 nM) it was 99.53%. The values for the Percent inhibition in assay [8] (rivoceranib 160 nM), in assay [8] (rivoceranib 1600 nM) and in assay [9] (rivoceranib 1600 nM) were 96.12%, 100.79% and 99.33%, respectively. The concentration for half-maximal inhibition (IC50) in assay [1] (read-out: IC50 for VEGFR2 kinase inhibition in a previous study, ATP 10 µM) is 1 nM; in [10] it was 16 nM. Further, in assay [2] (160 nM and 1600 nM rivoceranib, compared among all inhibitors profiled), the “Overall residual kinase activity across the panel of kinases” value is “the greatest residual kinase activity”. Besides, the dissociation constant (Kd) in [11] (KD (binding affinity, KD = kd/ka), SPR, single-cycle kinetics, 22 °C, 1:1 model, based on four replicates) is 2.08 nM and 2 nM and ~2 nM; in [11] (KD, SPR, individual replicates 1a, 1b, 2a, 2b), 3.06 nM and 1.84 nM and 1 nM and 3.34 nM. Moreover, the kd was 0.000807 s⁻¹ in assay [11] (SPR, geometric average of four replicates); 0.000775 s⁻¹ and 0.000557 s⁻¹ and 0.000445 s⁻¹ and 0.0022 s⁻¹ in [11] (setting [13]). Moreover, in assay [11] (setting [13]), the ka is 303000 M⁻¹ s⁻¹ and 253000 M⁻¹ s⁻¹ and 445000 M⁻¹ s⁻¹ and 659000 M⁻¹ s⁻¹. Further, in assay [11] (read-out: ka, SPR, geometric average of four replicates), the kon stood at 387000 M⁻¹ s⁻¹.

As to `COc1cc2nccc(Oc3ccc(NC(=O)Nc4cc(C)on4)c(Cl)c3)c2cc1OC` [tivozanib], in [2] (setting [12]), the “Number of additional kinases beyond VEGFR2 inhibited by > 50%” value was “more than 70”.

In the case of `CNC(=O)c1cc(Oc2ccc(NC(=O)Nc3ccc(Cl)c(C(F)(F)F)c3)c(F)c2)ccn1` [regorafenib], in [1] (read-out: Reported IC50 values (VEGFR2), published literature, ref Wilhelm SM et al., Int J Cancer. 2011), the half-inhibitory concentration (IC50) is 4 nM.
